Source: patent US20230352114A1, “METHODS OF PROVIDING MODULATORS OF TAU AGGREGATION” (GTInvent Limited, priority 2020, published 2023)
Entries after “also recorded” stand apart in the source; their conditions may differ.

Columns and labels:
dGAE [1] = molecular target: T1, dGAE (Homo sapiens, UniProt P10636); assay: sandwich ELISA epitope occlusion assay of dGAE aggregates with core region scAbs; type: biochemical; details: dGAE with DTT, 1:5 ratio, 24 h at 37° C.; total and supernatant samples
T1 construct: Recombinant tau297-391 (dGAE) was produced and purified from; made in house; host or cells: E. coli
Text: The truncated core repeat domain dGAE (297-391), is the predominant fragment that constitutes bulk of the PHF core in AD (Wischik et al, 1988). During dGAE aggregation in vitro, scAb binding regions on dGAE are ‘hidden’ or ‘occluded’ which leads to a loss of immunoreactivity in aggregation samples. Here we have shown the occlusion of binding regions in aggregated dGAE samples and the recovery of immunoreactivity in the presence of LMTM, a tau-aggregation inhibitor. For preparing the aggregates, 10 μl 10 mM DTT was added to 1000 μl 100 μM dGAE and agitated with/without LMTM (1:5 ratio) at 700 rpm for 24 h at 37° C. Following overnight agitation, one third of each sample was kept aside as ‘total’ and the rest was spun down at 16000×g for 30 min and separated into ‘supernatant’ and ‘pellet’. The pellet was then resuspended in half the original volume for further experiments. The immunoreactivities of core region specific scAbs towards dGAE aggregates formed with/without LMTM was tested using a sandwich ELISA format using a ‘E’ specific monoclonal antibody 423 mAb. […] ELISA plates were coated with 10 μg/ml 423 mAb and blocked as normal. Doubling dilutions of dGAE aggregate ‘total’, ‘supernatant’ and ‘pellet’ samples at 10 μg/ml starting concentration were added to designated wells in doubling dilutions in 1×PBS. dGAE monomer (non-aggregated) was included as assay control. […]

Tau aggregation = assay: cell-based tau aggregation assay (Rickard et al., 2017); details: tau aggregation inhibition
Method: Selected or designed compounds may further be synthesised or obtained and tested for their ability to modulate Tau aggregation, for example in a cell-based aggregation assay as described in Rickard et al., 2017.
These compounds were assessed in a cell-based Tau aggregation assay. […] The substituents were designed to test the required strength of hydrogen bonds with the pocket, as well as optimal orientation for hydrophobic and pi interactions.

dGAE [2] = molecular target: T1, dGAE; assay: protease digestion (Proteinase K / Pronase E) of assembled dGAE, SDS-PAGE; type: biochemical; details: 100 μM dGAE, 10 mM DTT, ratios up to 1:5, 72 hours
Method: Protease digestion: 100 μM dGAE with 10 mM DTT in phosphate buffer (20 mM, pH 7.4), with or without MTC at ratios up to 1:5 was agitated at 700 rpm, 37° C. for 72 hours. 10 μg aliquots were digested with increasing concentrations of Proteinase K (PK), Pronase E (PE), or left untreated. The digestion was carried out at 37° C. for 1 hour then the reaction was stopped with 1 mM Pefabloc and samples were placed on ice for 5 minutes. Sample buffer without any reducing agent was added, incubated for 5 minutes at room temperature then loaded onto a gel.
Soluble or fibrils of dGAE (100 μM) in reducing conditions (10 mM DTT) were incubated with increasing concentrations of proteinase K or Pronase E then samples were run on SDS-PAGE.

[3] = clinical evidence; fold lower; cited from earlier work

T1 sequence (P10636 614-708): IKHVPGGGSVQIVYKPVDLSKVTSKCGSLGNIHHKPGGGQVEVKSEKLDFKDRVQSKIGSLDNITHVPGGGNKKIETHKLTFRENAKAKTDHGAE

| Structure (SMILES) | immunoreactivity of core region scAbs to dGAE aggregated in presence of the compound (dGAE [1]) | EC50 (Tau aggregation) | formation of protease resistant core of dGAE (dGAE [2]) | effective dose relative to minimum effective dose of the oxidized MT+ form [3] |
| --- | --- | --- | --- | --- |
| CN(C)c1ccc2c(c1)Sc1cc(N(C)C)ccc1N2 [LMT, leuco-methylthioninium] | loss of immunoreactivity could be prevented | 96 nM | loss of protease resistance; also recorded: prevents the formation of a protease resistant core | – |
| CN(C)c1ccc2c(c1)Sc1cc(N(C)C)ccc1N2.CS(=O)(=O)O.CS(=O)(=O)O [LMTM, hydromethylthioninium mesylate] | increase in immunoreactivity; also recorded: increased binding | – | – | 20 fold |
